According to USRE43135E1, “Method of improving dough and bread quality” (Danisco A/S, priority 2001, dated 2012):

Legend:
[1] = Minibread dough, free fatty acid analysis; assay type: biochemical, wheat
Description: (§1) 10 g of fully proofed dough was immediately frozen and freeze dried. The freeze-dried dough was milled in a coffee mill and passed through an 800 micron screen. 1.5 g freeze-dried dough was scaled in a 15 ml centrifuge tube with screw top lid. 7.5 ml water saturated butanol (WSB) was added. The centrifuge tube was placed in a boiling water bath for 10 minutes. The tubes were placed in a Rotamix and rotated at 45 rpm for 20 minutes at ambient temperature and then placed in a boiling water bath again for a further 10 minutes prior to being Rotated on the Rotamix for a further 30 minutes at ambient temperature. The tubes were centrifuged at 3500 g for 5 minutes. 5 ml supernatant was transferred into a vial and the WSB was evaporated to dryness under a steam of nitrogen.
The free fatty acids in the extract were analysed as Cu-salts in isooctane measured at 715 nm and quantified according to a calibration curve based on oleic acid (Kwon D. Y. and Rhee J. S. (1986), A simple and rapid Colourimetric Method for […]

[2] = Model dough, free fatty acid in dough (cowpea LAH); assay type: biochemical, wheat
Description: (§2) 10 g of flour and 0.020 g sodium chloride were mixed in a 10 g Farinograph mixing bowl for 1 minute either with or without enzymes. Subsequently water (500 Brabender units) was added and mixed for 5 minutes at 30° C. After mixing the dough was placed at 32° C. for 1 hour, and then frozen and freeze dried prior to further analysis.
as §1
The free fatty acids in the extract were analysed as Cu-salts in isooctane measured at 715 nm and quantified according to a calibration curve based on oleic acid (Kwon D. Y. and Rhee J. S. (1986), A simple and rapid Colourimetric Method for
In the first series of dough experiments purified cowpea LAH was tested in 10 g dough in different concentrations in order to test the activity of the enzyme in dough and in order to find a suitable dosage for baking experiments. The activity of the enzyme was measured by analysing the level of free fatty acid in dough.

[3] = Minibread dough, GLC analysis of non-polar dough lipids; assay type: biochemical, wheat
Description: as §1
Perkin Elmer 8420 Capillary Gas Chromatography equipped with WCOT fused silica column 12.5 m×0.25 mm ID×0.1 μm 5% phenyl-methyl-silicone (CP Sil 8 CB from Crompack). • Carrier: Helium. • Injection: 1.5 μl with split. • Detector: FID. 385° C.
Sample preparation: 50 mg wheat lipid was dissolved in 12 ml heptane: pyridine 2:1 containing an internal standard heptadecane, 2 mg/ml. 500 μl of the sample was transferred to a crimp vial. 100 μl MSTFA (N-Methyl-N-trimethylsilyltrifluoracetamid) was added and the reaction incubated for 15 minutes at 90° C. Calculation: Response factors for mono-di-triglycerides and free fatty acid were determined from reference mixtures of these components. Based on these response factors the mono-di-triglycerides and free fatty acids in wheat lipids were calculated.

[4] = Enzyme-catalysed degumming of vegetable oil; assay type: biochemical; conditions: rapeseed oil degumming; preliminary results
Description: Vegetable oil, in particular rapeseed oil, was treated with LAH isolated from cowpea to effect degumming of the oil. The process used was essentially as per the enzyme-catalysed degumming process of vegetable oil generally taught in Buchold, H. (Fat Sci. Technol. 95 Jahrgang nr. 8, 1993, pp300-305), excepting that LAH was used.

[5] = Assay for enzyme activity with pNP-Caprate; assay type: biochemical; conditions: desalted/concentrated sample of purification step 5 (used for baking trials)
Description: Preparation of substrate for enzymatic assay: The substrate, pNP-Caprate (C10), was dissolved in ethanol and diluted in 100 mM Na-Phosphate-buffer (pH 6.3) to a final concentration of 0.1 mg,/ml substrate and 30% ethanol respectively, and kept at room temperature.
Assay method: The enzyme assay mixture contained 30 μl sample/blank and 250 μl substrate. The mixture was incubated at 35° C. for 30 minutes (420 nm) whilst simultaneously running an ELISA-reader (420 nm) kinetic program. The Vmax value was used for calculation of enzyme activity (U/ml). Vmax was converted to μmol from a standard curve for solutions of pNP measured under the same conditions as the sample. The enzyme activity is defined as the amount of enzyme which produce 1 μmol of pNP per min. at 35° C.

[6] = Model dough, HPLC analysis of polar lipids in dough (cowpea LAH); assay type: biochemical, wheat
Description: as §2, §1
Determination of Free Fatty Acids for Lipase Assay, JAOCS 63:89). Determination of Glycolipids and Phospholipids by HPLC.
The calibration curve for PC was used to calculate the amounts of the glycolipids and phospholipids.
Lipids extracted from the dough were further analysed by HPLC in order to study the effect on polar lipids in the dough.

[7] = Cowpea LAH 0.0048 Units/kg flour
[8] = Cowpea LAH 0.024 Units/kg flour
[9] = Cowpea LAH % 0.1195, minibread dough
[10] = Cowpea LAH % 0.239, minibread dough
[11] = Cowpea LAH % 0.478, minibread dough
[12] = Cowpea LAH % 0.956, minibread dough
[13] = Test no. 2, Cowpea LAH 0.05 % in dough, fully proofed minibread dough
[14] = Test no. 3, Cowpea LAH 0.15 % in dough, fully proofed minibread dough

With “Cowpea LAH: lipolytic acyl hydrolase (E.C. 3.1.1.26) isolated from cowpea (Vigna unguiculata) leaves; hydrolyses glycolipid and phospholipid, not triglyceride” the “Free fatty acid in dough” value ([1]; Cowpea LAH 0.1195 Units/kg) was 2.72 ‰, the “Free fatty acid in dough” value ([1]; Cowpea LAH 0.239 Units/kg) was 2.81 ‰ and the “Free fatty acid in dough” value ([1]; Cowpea LAH 0.478 Units/kg) was 3.07 ‰. The “Free fatty acid in dough” value ([1]; Cowpea LAH 0.956 Units/kg) was 3.28 ‰, the Free fatty acid ([1]; Test no 3, Cowpea LAH 0.357 Units/kg flour, no DGDG) was 3.07 ‰ and the Free fatty acid ([1]; Test no 4, Cowpea LAH 0.357 Units/kg flour + DGDG 55% pure 0.2 %) was 3.00 ‰. For the same substance, the Free fatty acid ([1]; Test no 10, Cowpea LAH 1.07 Units/kg flour, no DGDG) was 3.32 ‰, the Free fatty acid ([1]; Test no 11, Cowpea LAH 1.07 Units/kg flour + DGDG 55% pure 0.1 %) was 3.42 ‰ and the Free fatty acid ([1]; Test no 12, Cowpea LAH 1.07 Units/kg flour + DGDG 55% pure 0.2 %) was 3.64 ‰. The Free fatty acid ([1]; Test no 13, Cowpea LAH 1.07 Units/kg flour + DGDG 55% pure 0.4 %) was 3.92 ‰, the Free fatty acid ([1]; Test no 15, Cowpea LAH 1.07 Units/kg flour + Soy oil 2 %) was 3.35 ‰ and the Free fatty acid ([1]; Test no 16, Cowpea LAH 2.14 Units/kg flour + Soy oil 2 %) was 3.75 ‰. The “Fatty acid in dough” value ([1]; Test no. 2, Cowpea LAH 0.05 % in dough) was 2.75 ‰, the “Fatty acid in dough” value ([1]; Test no. 3, Cowpea LAH 0.15 % in dough) was 2.96 ‰ and the “Fatty acid in dough” value [2, 7] was 1.66 ‰. The “Fatty acid in dough” value [2, 8] was 1.78 ‰, the “Fatty acid in dough” value ([2]; Cowpea LAH 0.12 Units/kg flour) was 2.13 ‰ and the “Fatty acid in dough” value ([2]; Cowpea LAH 0.6 Units/kg flour) was 2.55 ‰. For the same substance, the “Fatty acid in dough” value ([2]; Cowpea LAH 3 Units/kg flour) was 3.44 ‰, the Diglyceride [3, 9] was 0.96 ‰ and the Monoglyceride [3, 9] was 0.40 ‰. The Triglyceride [3, 9] was 5.04 ‰, the Diglyceride [3, 10] was 1.23 ‰ and the Monoglyceride [3, 10] was 0.41 ‰. For the same substance, the Triglyceride [3, 10] was 5.21 ‰, the Diglyceride [3, 11] was 0.90 ‰ and the Monoglyceride [3, 11] was 0.43 ‰. The Triglyceride [3, 11] was 5.09 ‰, the Diglyceride [3, 12] was 1.01 ‰ and the Monoglyceride [3, 12] was 0.41 ‰. The Triglyceride [3, 12] was 5.23 ‰, the Diglyceride [3, 13] was 0.95 ‰ and the Monoglyceride [3, 13] was 0.43 ‰. The Triglyceride [3, 13] was 4.98 ‰, the Diglyceride [3, 14] was 0.96 ‰ and the Monoglyceride [3, 14] was 0.43 ‰. The Triglyceride [3, 14] was 5.11 ‰, the Triglyceride ([3]; Test no. 3, Cowpea LAH 0.357 Units/kg flour, no DGDG added, minibread dough) was “not detected” and the Triglyceride ([3]; Test no. 4, Cowpea LAH 0.357 Units/kg flour + DGDG 55% pure 0.2 %, minibread dough) was 5.82 ‰. The “amounts of polar lipids in the oil” value [4] was “reduce the amounts of polar lipids”, the “triglyceride levels of the oil” value [4] was “not significantly affecting” and the Vmax [5] was 5.6 mOD/min. For the same substance, the enzyme activity [5] was 0.010 U/ml, the DGDG [6, 7] was 2.22 ‰ and the DGMG [6, 7] was 0.20 ‰. The LPC [6, 7] was 1.50 ‰, the PC [6, 7] was 0.52 ‰ and the DGDG [6, 8] was 2.12 ‰. The DGMG [6, 8] was 0.23 ‰, the LPC [6, 8] was 1.51 ‰ and the PC [6, 8] was 0.48 ‰. For the same substance, the DGDG ([6]; Cowpea LAH 0.12 Units/kg flour) was 1.84 ‰, the DGMG ([6]; Cowpea LAH 0.12 Units/kg flour) was 0.26 ‰ and the LPC ([6]; Cowpea LAH 0.12 Units/kg flour) was 1.37 ‰. For the same substance, the PC ([6]; Cowpea LAH 0.12 Units/kg flour) was 0.35 ‰, the DGDG ([6]; Cowpea LAH 0.6 Units/kg flour) was 1.08 ‰ and the DGMG ([6]; Cowpea LAH 0.6 Units/kg flour) was 0.30 ‰. For the same substance, the LPC ([6]; Cowpea LAH 0.6 Units/kg flour) was 1.30 ‰, the PC ([6]; Cowpea LAH 0.6 Units/kg flour) was 0.29 ‰ and the DGDG ([6]; Cowpea LAH 3.0 Units/kg flour) was 0.30 ‰. For the same substance, the DGMG ([6]; Cowpea LAH 3.0 Units/kg flour) was 0.11 ‰, the LPC ([6]; Cowpea LAH 3.0 Units/kg flour) was 1.19 ‰ and the PC ([6]; Cowpea LAH 3.0 Units/kg flour) was 0.00 ‰.
